The conditions of series [1]: cited from earlier work.
Series [2] can be described thus: residual penicillin G in the udder of a treated dry cow over 30 days. It is filed as in vivo. The settings on record: for Residual Benzathine Penicillin G In The Udder: 500,000 units of the composition of Example 1; for Residual Procaine Penicillin G In The Udder: dosage of 500,000 u.
The conditions of series [3]: high concentration product, e.g. 1,000,000 units procaine penicillin G and 1,000 milligrams dihydrostreptomycin; in some cases; cited from earlier work.

≈ marks a conversion by molar mass, not a printed value.

For the compound `CC1(C)S[C@@H]2[C@H](NC(=O)Cc3ccccc3)C(=O)N2[C@H]1C(=O)O` [Benzathine Penicillin G, N, N dibenzyl ethylene diamine di benzyl penicillinate], the solubility in water in series [1] (water) is 500 µg/mL (≈ 1500 µM). Moreover, the “Residual Benzathine Penicillin G In The Udder” value turned out to be 5.37 u/ml in series [2] (day 8 past treatment); 3.67 u/ml in series [2] (day 10 past treatment); 4 u/ml in series [2] (day 12 past treatment); 3.57 u/ml in series [2] (day 16 past treatment); 2.2 u/ml in series [2] (day 23 past treatment); 0.11 u/ml in series [2] (day 30 past treatment). The “amount remaining for effectively treating mastitis, compared with procaine penicillin” value in series [2] (over the extended 30 day treatment) is “substantially greater”.

As for `CC1(C)S[C@@H]2[C@H](NC(=O)Cc3ccccc3)C(=O)N2[C@H]1C(=O)O` [Procaine Penicillin G], in series [1] (compared with limited solubility penicillin), the “solubility (in words)” value is on record as “greater solubility”. Besides, the “dissipation of procaine penicillin” value in series [2] (after the 8th day) is listed as “rapidly dissipated”. Besides, the “initial amount of procaine penicillin remaining, compared with benzathine penicillin G” value in series [2] (at the 8th day) is “higher”. In addition, the “amount of procaine penicillin remaining relative to remaining benzathine penicillin G” value in series [2] (by the tenth day) is “less than half”. In addition, the “Residual Procaine Penicillin G In The Udder” value in series [2] (day 8 past treatment) is listed as 7.68 u/ml; in series [2] (day 10 past treatment) it was 1.56 u/ml; in series [2] (day 12 past treatment), “.21 u/ml”; in series [2] (day 16 past treatment, not detectable) it was “less than 0.01 u/ml”; in series [2] (day 23 past treatment, not detectable), “less than 0.01 u/ml”; in series [2] (day 30 past treatment, not detectable) it was “less than 0.01 u/ml”. Besides, in series [3], the “desired residual effects remain in the udder of a treated cow” value is listed as “only a few days”.

The record behind these values is patent publication US4172138A, “Method and composition of matter for the treatment of dry cows for mastitis” (priority 1977, dated 1979).
